Consider 37 compounds from paper PMC10150359 (Journal of Medicinal Chemistry, 2023).

Data set [1] deals with VSV-G-pseudotype virus (pVSV-G). Nature of the data set: microbe, parasite or virus in culture. The conditions noted are these: Vesicular stomatitis virus, read-out: %inh@10 µM (pVSV-G). Format: cell-based.
The test system of data set [2] is EBOV-GP-Pseudotype Virus (pEBOV).
The nature of data set [3]: in vitro. The conditions noted are these: human.
Data set [4] relates to EBOV-GP-Pseudotype Virus (pEBOV). Put plainly: microbe, parasite or virus in culture. Particulars: Zaire ebolavirus, 48 h; for EC50: HeLa, read-out: EC50 (μM) (pEBOV); for inhibition at 10 µM: M-HeLa, read-out: %inh@10 μM (pEBOV).
Data set [5] is described as follows: in vitro. The conditions noted are these: chlorocebus sabaeus.
Data set [6] concerns wild-type Zaire EBOV Mayinga 1976 strain (EBOV May). Nature of the data set: microbe, parasite or virus in culture. Particulars: Zaire ebolavirus, Vero C1008, 72 h, read-out: EC50 (μM), replicative EBOV.

The structures appear in SMILES notation.

As usually defined, the EC50 is the midpoint of the concentration-response curve. With `CN1CCN(CCC(=O)Nn2c3ccccc3c3ccccc32)CC1` [Compound 3], the inhibition at 10 µM in data set [1] was 10%. Also, in data set [2], the “SI (pEBOV) (CC50/EC50)” value amounted to 62.5. Moreover, the CC50 at 24 h in “in vitro [3]” came to 150 µM. Also, the 50% effective concentration (EC50) in data set [4] came out at 2.4 µM.
As for `CN(C)CC(=O)Nn1c2ccccc2c2ccccc21` [Compound 4], the “antiviral activity against pEBOV, in words” value (“antiviral activity” for short) in data set [2] is “inactive”. The inhibition at 10 µM in data set [4] is below 75%.
The like results for `CN(C)CCC(=O)Nn1c2ccccc2c2ccccc21` [Compound 5] were, in that order, “inactive” and below 75%.
In the case of `O=C(CCN1CCCC1)Nn1c2ccccc2c2ccccc21` [Compound 6], the inhibition at 10 µM in data set [1] amounted to 9%. For the same compound, the “SI (pEBOV) (CC50/EC50)” value in data set [2] was 21.7. The compound also had a CC50 at 24 h in the data set “in vitro [3]” of 28 µM. Besides, the EC50 in data set [4] stood at 1.29 µM.
As to `O=C(CCN1CCCCC1)Nn1c2ccccc2c2ccccc21` [Compound 7], in data set [1], the inhibition at 10 µM came to 30%. The “SI (pEBOV) (CC50/EC50)” value in data set [2] is on record as 1.78. In addition, the CC50 at 24 h in the data set “in vitro [3]” was 5 µM. In addition, the EC50 in data set [4] is 2.8 µM.
Turning to `O=C(CCl)Nn1c2ccccc2c2ccccc21` [Compound 8], in data set [2], the “antiviral activity” value was “inactive”. The inhibition at 10 µM in data set [4] is below 75%.
`O=C(CN1CCN(c2ccccc2)CC1)NN(c1ccccc1)c1ccccc1` [Compound 15, N′,N′-Diphenyl-2-(4-phenylpiperazin-1-yl)acetohydrazide] yielded a CC50 in “in vitro [3]” above 10 µM. For the same compound, in data set [4], the half-maximal effective concentration (EC50) was above 100 µM and the inhibition at 10 µM amounted to 8%.
In turn, `O=C(CCN1CCN(c2ccccc2)CC1)NN(c1ccccc1)c1ccccc1` [Compound 16, N′,N′-Diphenyl-3-(4-phenylpiperazin-1-yl)propanehydrazide] returned a CC50 in the data set “in vitro [3]” above 10 µM. The inhibition at 10 µM in data set [4] was found to be 70%.
The like results for `CCOC(=O)C1CCN(CC(=O)NN(c2ccccc2)c2ccccc2)CC1` [Compound 17, Ethyl 1-(2-(2,2-Diphenylhydrazinyl)-2-oxoethyl)piperidine-4-carboxylate] were, in that order, above 10 µM and 47%.
The like results for `CCOC(=O)C1CCN(CCC(=O)NN(c2ccccc2)c2ccccc2)CC1` [Compound 18, Ethyl 1-(3-(2,2-Diphenylhydrazinyl)-3-oxopropyl)piperidine-4-carboxylate] were, in that order, above 10 µM and 24%.
In the case of `O=C(CCN1CCCCC1)NN(c1ccccc1)c1ccccc1` [Compound 19, N′,N′-Diphenyl-3-(piperidin-1-yl)propanehydrazide], the “antiviral activity” value in data set [2] was “inactive”. Besides, the CC50 in the data set “in vitro [3]” is above 10 µM. Also, in data set [4], the inhibition at 10 µM stood at 60%.
`O=C(CN1CCOCC1)NN(c1ccccc1)c1ccccc1` [Compound 20, 2-Morpholino-N′,N′-diphenylacetohydrazide] gave a CC50 in the data set “in vitro [3]” above 10 µM. Also, the inhibition at 10 µM in data set [4] is -1%.
The like results for `O=C(CCN1CCOCC1)NN(c1ccccc1)c1ccccc1` [Compound 21, 3-Morpholino-N′,N′-diphenylpropanehydrazide] were, in that order, above 10 µM and 29%.
The like results for `O=C(CNCCN1CCOCC1)NN(c1ccccc1)c1ccccc1` [Compound 22, 2-((2-Morpholinoethyl)amino)-N′,N′-diphenylacetohydrazide] were, in that order, above 10 µM and 27%.
The matching figures for `O=C(CCNCCN1CCOCC1)NN(c1ccccc1)c1ccccc1` [Compound 23, 3-((2-Morpholinoethyl)amino)-N′,N′-diphenylpropanehydrazide]: above 10 µM and 42%.
Compound `O=C(CNCCc1ccccc1)NN(c1ccccc1)c1ccccc1` [Compound 24, 2-(Phenethylamino)-N′,N′-diphenylacetohydrazide] showed a CC50 in “in vitro [3]” above 10 µM. In data set [4], the inhibition at 10 µM stood at 10%.
The like results for `O=C(CCNCCc1ccccc1)NN(c1ccccc1)c1ccccc1` [Compound 25, 3-(Phenethylamino)-N′,N′-diphenylpropanehydrazide] were, in that order, above 10 µM and 61%.
The matching figures for `CCOC(=O)CCCCCCNCC(=O)NN(c1ccccc1)c1ccccc1` [Compound 26, Ethyl 7-((2-(2,2-Diphenylhydrazinyl)-2-oxoethyl)amino)heptanoate]: above 10 µM and 51%.
The like results for `CCOC(=O)CCCCCCNCCC(=O)NN(c1ccccc1)c1ccccc1` [Compound 27, Ethyl 7-((3-(2,2-Diphenylhydrazinyl)-3-oxopropyl)amino)heptanoate] were, in that order, above 10 µM and 53%.
In the data set “in vitro [3]”, `CCCCCC(=O)NN(c1ccccc1)c1ccccc1` [Compound 28, N′,N′-Diphenylhexanehydrazide] came in with a CC50 above 10 µM. Further, the inhibition at 10 µM in data set [4] turned out to be 67%.
`O=C(Cc1ccc(Br)cc1)NN(c1ccccc1)c1ccccc1` [Compound 29, 2-(4-Bromophenyl)-N′,N′-diphenylacetohydrazide] registered a CC50 in the data set “in vitro [3]” above 10 µM. In data set [4], the inhibition at 10 µM was 73%.
Turning to `O=C(CNCCC1CCN(Cc2ccccc2)CC1)NN(Cc1ccccc1)c1ccccc1` [Compound 30, N′-Benzyl-2-((2-(1-benzylpiperidin-4-yl)ethyl)amino)-N′-phenylacetohydrazide], in data set [1], the inhibition at 10 µM is -25%. Also, in data set [2], the “SI (pEBOV) (CC50/EC50)” value came out at 62. This compound also gave a CC50 at 24 h in “in vitro [3]” of 106 µM. Further, the half-maximal effective concentration (EC50) in data set [4] came to 1.05 µM.
With `O=C(CCNCCC1CCN(Cc2ccccc2)CC1)NN(Cc1ccccc1)c1ccccc1` [Compound 31, N′-Benzyl-3-((2-(1-benzylpiperidin-4-yl)ethyl)amino)-N′-phenylpropanehydrazide], the “antiviral activity” value in data set [2] is “inactive”. Further, the CC50 in the data set “in vitro [3]” is above 10 µM. In data set [4], the inhibition at 10 µM was below 75%.
In the case of `O=C(CCNCCN1CCN(Cc2ccccc2)CC1)NN(Cc1ccccc1)c1ccccc1` [Compound 32, N′-Benzyl-3-((2-(4-benzylpiperazin-1-yl)ethyl)amino)-N′-phenylpropanehydrazide], the inhibition at 10 µM in data set [1] was -36%. The “SI (pEBOV) (CC50/EC50)” value in data set [2] stood at 19.2. In addition, the CC50 at 24 h in the data set “in vitro [3]” was determined as 70 µM. The half-maximal effective concentration (EC50) in data set [4] is 3.63 µM.
Turning to `CN1CCN(CC(=O)NN(Cc2ccccc2)c2ccccc2)CC1` [Compound 33], the CC50 in the data set “in vitro [5]” and in “in vitro [3]” was above 100 µM each time. Also, the “antiviral activity” value in data set [2] was “inactive”. In data set [6], the EC50 is above 100 µM. Further, the inhibition at 10 µM in data set [4] was 13%.
For `CN1CCN(CCC(=O)NN(Cc2ccccc2)c2ccccc2)CC1` [Compound 34, N′-Benzyl-3-(4-methylpiperazin-1-yl)-N′-phenylpropanehydrazide], in data set [2], the “antiviral activity” value was “inactive”. The CC50 in “in vitro [3]” is above 10 µM. In addition, the inhibition at 10 µM in data set [4] is below 75%.
`CCOC(=O)C1CCN(CC(=O)NN(Cc2ccccc2)c2ccccc2)CC1` [Compound 35, Ethyl 1-(2-(2-Benzyl-2-phenylhydrazineyl)-2-oxoethyl)piperidine-4-carboxylate] gave a CC50 in “in vitro [3]” above 100 µM. Besides, the inhibition at 10 µM in data set [4] amounted to 15%.
As to `COC(=O)C1CCN(CC(=O)NN(Cc2ccccc2)c2ccccc2)CC1` [Compound 36, Methyl 1-(2-(2-Benzyl-2-phenylhydrazineyl)-2-oxoethyl)piperidine-4-carboxylate], the CC50 in the data set “in vitro [3]” is above 100 µM. The inhibition at 10 µM in data set [4] came to 24%.
The like results for `CCOC(=O)CCCCCCNCC(=O)NN(Cc1ccccc1)c1ccccc1` [Compound 37, Ethyl 7-((2-(2-Benzyl-2-phenylhydrazineyl)-2-oxoethyl)amino)heptanoate] were, in that order, above 100 µM and 30%.
Compound `CCCCCC(=O)NN(Cc1ccccc1)c1ccccc1` [Compound 38, N′-Benzyl-N′-phenylhexanehydrazide] yielded a CC50 in “in vitro [3]” above 100 µM. Also, the inhibition at 10 µM in data set [4] turned out to be 18%.
In turn, `O=C(Cc1ccc(Br)cc1)NN(Cc1ccccc1)c1ccccc1` [Compound 39, N′-Benzyl-2-(4-bromophenyl)-N′-phenylacetohydrazide] returned a CC50 in the data set “in vitro [3]” above 100 µM. In addition, the inhibition at 10 µM in data set [4] was 32%.
`O=C(CNCCC1CCN(Cc2ccccc2)CC1)N(c1ccccc1)c1ccccc1` [Compound 40, 2-((2-(1-Benzylpiperidin-4-yl)ethyl)amino)-N,N-diphenylacetamide]: the CC50 at 24 h in “in vitro [3]” came out at 100 µM. Further, the inhibition at 10 µM in data set [4] was determined as 8%.
In the data set “in vitro [3]”, `CCOC(=O)C1CCN(CC(=O)N(c2ccccc2)c2ccccc2)CC1` [Compound 41, Ethyl 1-(2-(Diphenylamino)-2-oxoethyl)piperidine-4-carboxylate] displayed a CC50 above 100 µM. In data set [4], the inhibition at 10 µM worked out at 40%.
As to `O=C(CNCCc1ccccc1)N(c1ccccc1)c1ccccc1` [Compound 42, 2-(Phenethylamino)-N,N-diphenylacetamide], the CC50 in the data set “in vitro [3]” is above 100 µM. Besides, the inhibition at 10 µM in data set [4] is 38%.
Turning to `CCOC(=O)CCCCCCNCC(=O)N(c1ccccc1)c1ccccc1` [Compound 43, Ethyl 7-((2-(Diphenylamino)-2-oxoethyl)amino)heptanoate], the CC50 in the data set “in vitro [3]” was above 100 µM. In addition, the inhibition at 10 µM in data set [4] is 35%.
The matching figures for `CCCCCC(=O)N(c1ccccc1)c1ccccc1` [Compound 44, N,N-Diphenylhexanamide]: above 100 µM and 32%.
The like results for `O=C(Cc1ccc(Br)cc1)N(c1ccccc1)c1ccccc1` [Compound 45, 2-(4-Bromophenyl)-N,N-diphenylacetamide] were, in that order, above 100 µM and 36%.
